Our source for the IC50 and residual activity values is ChEMBL document CHEMBL1156915, “Synthesis of new thienyl ring containing HIV-1 protease inhibitors: promising preliminary pharmacological evaluation against recombinant HIV-1 proteases” (J Med Chem, 2010).

In one assay the target is Protease (Human immunodeficiency virus 1, UniProt Q9YQ12). The assay is described as follows: Inhibition of recombinant wild type HIV1 protease assessed as hydrolysis of fluorogenic substrate.
In assay [1] the target is Protease (Human immunodeficiency virus 1) (UniProt Q9YQ12). The assay is described as follows: Inhibition of recombinant wild type HIV1 protease assessed as residual activity at 1 nM by fluorogenic substrate assay; values are per cent of control.
The test system of assay [2] is Human immunodeficiency virus type 1 protease (Human immunodeficiency virus 1), Q72874 [V82A]. The assay is described as follows: Inhibition of recombinant HIV1 protease V82A mutant assessed as residual activity at 1 nM by fluorogenic substrate assay; values are per cent of control.
The target of assay [3] is Protease (Human immunodeficiency virus 1) (UniProt Q9YQ12). The experiment in a line: Inhibition of recombinant HIV1 protease assessed as residual activity at 10 nM by fluorogenic substrate assay; values are per cent of control.
In assay [4] the test system is Human immunodeficiency virus type 1 protease (Human immunodeficiency virus 1), Q72874 [V32I]. The experiment in a line: Inhibition of recombinant HIV1 protease V32I mutant assessed as residual activity at 10 nM by fluorogenic substrate assay; values are per cent of control.
For assay [5] the test system is unchanged. The experiment in a line: Inhibition of recombinant HIV1 protease V32I mutant assessed as residual activity at 1 nM by fluorogenic substrate assay; values are per cent of control.

Sequence of Protease (Human immunodeficiency virus 1) (Q9YQ12 as listed by the source): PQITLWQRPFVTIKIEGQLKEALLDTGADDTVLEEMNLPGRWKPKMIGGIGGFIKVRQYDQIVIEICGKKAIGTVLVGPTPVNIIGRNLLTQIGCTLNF
Sequence of Protease (Q9YQ12 whole entry): as the sequence (Q9YQ12 as listed by the source) above

Regarding `Cc1c(O)cccc1C(=O)N[C@@H](c1cc(-c2ccccc2)cs1)[C@H](O)CN1C[C@H]2CCCC[C@H]2C[C@H]1C(=O)NC(C)(C)C`, the IC50 on Protease was 4000 nM.

As for `CC(C)(C)NC(=O)[C@@H]1C[C@@H]2CCCC[C@@H]2CN1C[C@@H](O)[C@@H](NC(=O)[C@H](CC(N)=O)NC(=O)c1ccc2ccccc2n1)c1cccs1`, the IC50 at Protease is 5000 nM.

With `Cc1c(O)cccc1C(=O)N[C@@H](Cc1cc(-c2ccccc2)cs1)[C@H](O)CN1C[C@H]2CCCC[C@H]2C[C@H]1C(=O)NC(C)(C)C`, at Protease, the IC50 amounted to 6 nM.

`Cc1c(O)cccc1C(=O)N[C@@H](CSc1ccccc1)[C@H](O)CN1C[C@H]2CCCC[C@H]2C[C@H]1C(=O)NC(C)(C)C`: the IC50 on Protease came out at 1.9 nM.

Take `CC(C)(C)NC(=O)[C@@H]1C[C@@H]2CCCC[C@@H]2CN1C[C@@H](O)[C@H](Cc1cc(-c2ccccc2)cs1)NC(=O)C(CC(N)=O)NC(=O)c1ccc2ccccc2n1` (single isomer, unassigned): the IC50 at Protease amounted to 1.2 nM.

With `CC(C)(C)NC(=O)[C@@H]1C[C@@H]2CCCC[C@@H]2CN1C[C@@H](O)[C@H](Cc1cc2ccccc2s1)NC(=O)C(CC(N)=O)NC(=O)c1ccc2ccccc2n1` (single isomer, unassigned), the values for the residual activity in assay [1] and in assay [2] were 53% and 37%, respectively. Moreover, the half-inhibitory concentration (IC50) on Protease was determined as 0.6 nM.

In the case of `Cc1c(O)cccc1C(=O)N[C@@H](Cc1cccs1)[C@H](O)CN1C[C@H]2CCCC[C@H]2C[C@H]1C(=O)NC(C)(C)C`, the residual activity in assay [3] is 5%; in assay [1], 34%; in assay [4], 32%; in assay [2], 60%; in assay [5] it was 97%. Also, the IC50 at Protease amounted to 2.9 nM.

Regarding `Cc1c(O)cccc1C(=O)N[C@@H](c1cccs1)[C@H](O)CN1C[C@H]2CCCC[C@H]2C[C@H]1C(=O)NC(C)(C)C`, on Protease, the IC50 is 30000 nM.

Regarding `Cc1c(O)cccc1C(=O)N[C@@H](Cc1cc2ccccc2s1)[C@H](O)CN1C[C@H]2CCCC[C@H]2C[C@H]1C(=O)NC(C)(C)C`, the IC50 on Protease is 15 nM.

In the case of `CC(C)(C)NC(=O)[C@@H]1C[C@@H]2CCCC[C@@H]2CN1C[C@@H](O)[C@@H](NC(=O)[C@H](CC(N)=O)NC(=O)c1ccc2ccccc2n1)c1cc(-c2ccccc2)cs1`, on Protease, the IC50 came to 1500 nM.

As for `CC(C)(C)NC(=O)[C@@H]1C[C@@H]2CCCC[C@@H]2CN1C[C@@H](O)[C@H](Cc1cccs1)NC(=O)C(CC(N)=O)NC(=O)c1ccc2ccccc2n1` (single isomer, unassigned), at Protease, the IC50 amounted to 21 nM.
